Test results from the METLIN SMRT retention time set (Domingo-Almenara et al. 2019).

Experiment: gradient 5% acetonitrile 3 min, to 50% in 2 min, to 85% in 15 min, held 3 min, 100 µL/min
Conditions: column: Zorbax Extend-C18 2.1 x 50 mm; eluents: water / acetonitrile, 0.1% formic acid
Procedure, shortened: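 The system's dead and dwell volumes were 40 μL and 900 μL, with a Zorbax Extend-C18 column (2.1 × 50 mm, 1.8 μm) run at 100 μL/min in water and acetonitrile containing 0.1% formic acid each. Pure standards were analyzed in mixtures of ~100 molecules by HPLC–quadrupole time-of-flight mass spectrometry in positive and negative ionization mode. Retention time was assigned from computationally picked, manually inspected adduct peaks.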

Structure (SMILES)	RP-LC retention time
O=C1CC(c2cc(F)cc(F)c2)Cc2nc(N3CCN(c4ccccc4)CC3)ncc21 (centres undefined)	1270 s
O=C(c1ccc(-c2csc(C3CC3)n2)cc1)N1CCCCC1	971 s
CC(C)c1nnc(-c2cccnc2N2CCN(C(=O)c3ccco3)CC2)o1	735 s
Cc1ccc(C(=O)NCC2CN(C(C)C)CC23CCCCC3)s1 (centres undefined)	670 s
CCCCN1CCN(C(=O)COc2ccc(NC(=O)C3CC3)cn2)CC1	570 s
COCc1nncn1C1CCN(S(=O)(=O)c2ccc(C)cc2C)CC1	743 s
COc1ccc(Cl)cc1C(=O)NCC(O)C1CCCCC1 (centres undefined)	863 s
COC(=O)c1c(C)[nH]c(C(=O)N2CCC(CC(=O)NCCC(C)N3CCCC3)CC2)c1C (centres undefined)	578 s
CC1CCCN(S(=O)(=O)c2ccc(-c3nnc(C4CCCC4)o3)o2)C1 (centres undefined)	1080 s
Cc1nnc(SCC2=C(C(=O)O)N3C(=O)C(NC(=O)Cn4cnnn4)C3SC2)s1 (centres undefined)	641 s
CCCCn1nc2ccc(S(=O)(=O)N3CCCCCC3)cn2c1=O	957 s
O=C(NC1CCN(c2cc(-c3ccc(F)cc3)[nH]n2)C1)c1ccc2c(c1)OCO2 (centres undefined)	695 s
Cn1cc(CN2CCC(C(=O)NC3CCCCCC3)CC2)c2cc(Cl)ccc21	751 s
O=C(NC1CCCCC1)N1CCC(c2noc(-c3ccccn3)n2)C1 (centres undefined)	734 s
O=C(c1cc2ccccc2[nH]1)N1CCOCC1	713 s
CSc1ccc(-c2nc3c(C)cccn3c2Nc2ccc3c(c2)OCCO3)cc1	749 s
COc1ccc(-c2noc(CN3C(=O)COc4ccc(C(C)(C)C)cc43)n2)cc1OC	1120 s
Cc1cc(N2CCCCC2C)n2nc(-c3ccccc3)nc2n1 (centres undefined)	966 s

Structure (SMILES)	RP-LC retention time
Cc1c2c(nn1-c1ccc(SCc3cccc(F)c3)nn1)CCC2	1280 s
Cc1ccc(NC(=O)Cn2nc3n(c2=O)CCCCC3)cc1F	734 s
CCc1nnc2ccc(-c3noc(Cc4cccc(Cl)c4)n3)cn12	896 s
Cn1cccc1-c1cc2n(n1)CCC(=O)N2CCCC(=O)NCCCN1CCCCCC1	607 s
CC(C)Cn1c(=O)c2cc(C(=O)N3CCSCC3)nn2c2ccccc21	955 s
O=c1ccc(-c2ccc(F)cc2)nn1CCc1nc(-c2ccc(F)c(Br)c2)no1	1120 s
Cc1ccsc1C(=O)NCC1Cn2cccc2C(=O)N1C (centres undefined)	656 s
Cc1ccc(NC(=O)N2CCN(CCn3c(C(C)C)nc4cccnc43)CC2)c(C)c1	621 s
Cc1[nH]c(C)c(S(=O)(=O)N2CCC(C(=O)NC3CCCCC3)CC2)c1C(=O)N1CCCCC1	720 s
COc1cc(NC(=O)N2CCC(n3cnc4cccnc43)CC2)cc(OC)c1	638 s
C=CCSc1nnc(Cc2cc(=O)[nH]c(=O)[nH]2)n1-c1ccc(Cl)cc1	624 s
CCCNC(=O)CC1CCN(C(=O)c2[nH]c(C)c(C(=O)OCC)c2C)CC1	683 s
c1ccc(-n2ccnc2SCc2nc(-c3ccc4c(c3)OCO4)no2)cc1	790 s
O=C(NCCCN1CCCCC1)c1ccc(-c2ccnc(N3CCCC3)n2)cc1	592 s
O=C(NCCc1cccnc1)C1CCc2nc(N3CCCC3)ncc2C1 (centres undefined)	532 s
CCc1noc(-c2cccnc2N2CCCN(Cc3cc(F)cc(F)c3)CC2)n1	673 s
COc1ccc(S(=O)(=O)N2CCN(c3cc(C)nc(N4CCOCC4)n3)CC2)cc1Cl	692 s
CCSCCOC(=O)C1=C(C)NC2=C(C(=O)CC(C)(C)C2)C1c1ccccn1 (centres undefined)	648 s

Next, values leading:

RP-LC retention time	Structure (SMILES)
1260 s	Cc1cc(F)ccc1NS(=O)(=O)c1cc(-c2nc(C(C)(C)C)cs2)cs1
944 s	O=S(=O)(c1cccc(-c2cn3cc(Cl)ccc3n2)c1)N1CCCCCC1
865 s	CCS(=O)(=O)c1ccc2c(c1)N(Cc1nc(-c3ccccc3)no1)C(=O)CO2
1190 s	O=C(Nc1nc(-c2ccc([N+](=O)[O-])cc2)cs1)c1ccc(COc2c(F)c(F)cc(F)c2F)o1
741 s	CCOc1ccc2nc(NC(=O)c3cc(=O)c(OCc4ccccc4)cn3C)sc2c1
651 s	COc1ccc(C(=O)N2CCC(c3nc4cccnc4n3C)C2)cc1F (centres undefined)
754 s	COc1ccc(OC)c(CNC(=O)C2CCN(c3ncnc4c3oc3ccccc34)CC2)c1
690 s	Cc1nc2c(NC(=O)c3cccs3)cccn2n1
697 s	COc1ccc2c(c1)c(CN1CCC(C(=O)NCc3ccccc3C)CC1)cn2C
807 s	Cc1noc(C)c1-c1ccc(S(=O)(=O)N2CCOCC2)cc1
612 s	Cn1ncc2c3ccccc3n(CCCC(=O)NCc3cccnc3)c2c1=O
793 s	CCC(C)C(NC(=O)c1ccc(Cl)cc1)C(=O)Nc1nc2ccccc2[nH]1 (centres undefined)
840 s	COC(=O)c1ccc(NC(=O)N(C)CCc2noc(-c3ccccc3)n2)cc1
968 s	O=C(Nc1ccc2c(c1)OCCO2)C1CCCN(S(=O)(=O)Cc2ccc(Cl)cc2)C1 (centres undefined)
614 s	O=C(c1ccncc1)N1CCCC(c2nc(-c3ccc(F)cc3)n[nH]2)C1 (centres undefined)
999 s	CC1CCCN(S(=O)(=O)c2cccc(-c3cn4cc(Cl)ccc4n3)c2)C1 (centres undefined)
690 s	CC(C)N1CC2(CCN(S(=O)(=O)c3ccccc3)CC2)C1c1ccccc1 (centres undefined)
802 s	COc1ccc(OCc2noc(CNC(=O)C3(c4ccccc4)CCOCC3)n2)cc1
740 s	COc1ccc(OC)c(NC(=O)Cn2c(=O)nc(NC3CCCC3)c3ccccc32)c1
577 s	O=C(NC1CC1)c1cc(N2CCCC2)nc2ccccc12
909 s	COc1ccc(Cl)cc1NC(=O)N1CCC2(CC1)N=C(c1ccccc1)C(=O)N2
741 s	O=C(Nc1ccccc1F)[C@@H]1COCC(=O)N1Cc1cccs1
855 s	COc1ccccc1CC(=O)Nc1ccc2c(c1)Sc1ncccc1C(=O)N2C(C)C
829 s	CCCCC(=O)N1CCN(c2ccc(=O)n(-c3ccc(Cl)cc3)n2)CC1
879 s	CCc1cccc(NC(=O)C2CCN(C(=O)c3ncn4c3COC(c3ccccc3)C4)CC2)c1 (centres undefined)
859 s	CC(c1ccccc1)n1cnc2c(oc3ccccc32)c1=O (centres undefined)
1120 s	Cc1nn(C(C)C(=O)Nc2cccc(F)c2)c(=O)c2c(-n3cccc3)n(-c3ccccc3)nc12 (centres undefined)

RP-LC retention time	Structure (SMILES)
726 s	CCN(CC)CCNC(=O)c1ccc(NCN2C(=O)NC(c3ccccc3)(c3ccccc3)C2=O)cc1
629 s	COc1ccc(Cl)cc1S(=O)(=O)N1CCC(C(=O)NCCO)CC1
769 s	NS(=O)(=O)c1ccc(NC(=O)c2csc3c2CCCC3)cc1
625 s	CCC(=O)Nc1ccc(CCc2nc3ccc(C(=O)NC4CCCC4)cc3[nH]2)cc1
928 s	COC[C@@H]1OCCN(S(=O)(=O)c2cccc(F)c2)[C@H]1c1ccccc1
742 s	COCCCNC(=O)NCc1ccc2c(c1)N(C(=O)c1ccccc1)CC2
816 s	O=C(c1ccccc1)N1CCCc2cc(NS(=O)(=O)c3ccccc3Cl)ccc21
948 s	CC(C)c1ccc(NC(=O)C2CCCN2S(=O)(=O)c2cc3c(cc2Cl)NC(=O)CO3)cc1 (centres undefined)
780 s	O=C(CN1CCN(Cc2ccc(F)cc2)C(=O)C1=O)NCc1ccc2c(c1)OCO2
650 s	CCc1nc2ccccc2c(C(=O)NC2CCCCC2)c1C
671 s	CC(C)c1ccc(NC(=O)Cn2nc3c4ccc(Cl)cc4ncn3c2=O)cc1
1140 s	O=C(NCCc1ccccc1)c1cc2sccc2n1Cc1ccc(F)cc1
751 s	CC(C)(C)c1ccc(C(=O)Nc2nnc(-c3ccccn3)o2)cc1
804 s	O=C1[C@H]2CN(Cc3cccc(F)c3)C[C@H]2C(=O)N1CCc1ccccc1
730 s	O=C(Cn1nc(-n2cccn2)ccc1=O)Nc1cc(C(F)(F)F)ccc1Cl
998 s	CCc1nn2c(CNC(=O)c3cccc(Cl)c3)c(-c3ccccc3)nc2s1
1030 s	COC(=O)c1ccccc1NS(=O)(=O)c1ccc(Br)cc1
807 s	Cc1cc2c(c(=O)n(-c3ccc(F)cc3)c(=O)n2CC(=O)Nc2ccc3c(c2)OCO3)n1C
630 s	O=C(NCc1cccnc1)C1CCN(Cc2cc3ccccc3n2Cc2ccccc2Cl)CC1
697 s	Cc1ccc2nc(-c3ccccc3)c(Nc3ccc4c(c3)OCCO4)n2c1
738 s	CC(C)(C)C(=O)Nc1ccc(C(=O)NCCNC(=O)Nc2ccccc2Cl)cc1
785 s	O=C1CCCc2c1cc(C(=O)Nc1ccc(F)cc1F)c(=O)n2-c1ccc(F)cc1
1130 s	O=C(Cn1cccc1-c1nc(-c2ccc(Cl)cc2)cs1)N1CCCC1
1160 s	Cc1ccc(-n2ccnc(NC(=O)Nc3ccc(F)c(Cl)c3)c2=O)cc1C
634 s	Cc1ccccc1-c1ccc(N2CCC(C(=O)Nc3ccc4c(c3)OCCO4)CC2)nn1
763 s	CCN1c2ccc(F)cc2C(=O)NC12CCN(C(=O)c1ccccc1)CC2
